Laboratory results as given in paper PMC4850106 (Journal of medicinal chemistry, 2016).

What was measured:
BBB-PAMPA assay = format: in vitro ADME, porcine; details: 500 µM in donor, 4 h
[1] = In vitro human BBB cell-based model; format: in vitro ADME; details: human
[2] = test system: brain-like endothelial cells cocultured with pericytes; test: In vitro human BBB cell-based model; format: in vitro ADME; details: cell-based BBB model, 200 µM, 2 h
human NOP = human NOP (Homo sapiens, UniProt P41146); details: read-out: Ki for the human NOP; cited from earlier work
Sequence of human NOP (P41146 whole entry): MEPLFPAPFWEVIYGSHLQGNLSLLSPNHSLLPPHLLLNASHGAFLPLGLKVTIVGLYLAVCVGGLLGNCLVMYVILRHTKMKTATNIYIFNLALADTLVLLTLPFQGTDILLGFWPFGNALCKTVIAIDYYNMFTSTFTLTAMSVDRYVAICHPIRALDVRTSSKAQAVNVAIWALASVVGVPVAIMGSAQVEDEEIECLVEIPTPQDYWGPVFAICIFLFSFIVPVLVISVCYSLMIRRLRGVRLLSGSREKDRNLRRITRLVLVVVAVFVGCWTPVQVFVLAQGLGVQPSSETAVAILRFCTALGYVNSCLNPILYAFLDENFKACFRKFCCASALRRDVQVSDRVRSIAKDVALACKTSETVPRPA

neuropathic mice = details: neuropathic conditions ref 73; cited from earlier work
Sprague–Dawley rats = test: Respiratory effects by whole body plethysmography in rats; format: in vivo; details: iv, 13a 0.5 mg/kg, morphine 5 mg/kg
mice (C57BL6) = details: acute pain, increased dosing ref 73; cited from earlier work

Molecule: CC[C@H](C)[C@H](NC(=O)[C@H](CCCN=C(N)N)NC(=O)[C@H](Cc1ccc(O)cc1)NC(=O)[C@H](Cc1ccc(O)cc1)NC(=O)[C@H](CCCN=C(N)N)NC(C)=O)C(=O)N[C@@H](CCCCN)C(N)=O [compound 8, Ac-Arg-Tyr-Tyr-Arg-Ile-Lys-NH2]
- transport (%) (BBB-PAMPA assay): 0.15%
- Papp A→B at 2 h, 200 µM [1]: 8.4 ×10⁻⁶ cm/s
- mass balance (%) [2]: 95%
- transport (%) [2]: 14%

Molecule: Ac-Arg-Tyr-Tyr-Arg-Trp-Arg-NH2 (Ac-RYYRWR-NH2)
- Ki (human NOP): 0.1 nM

Molecule: CN1CC[C@]23c4c5ccc(O)c4O[C@H]2[C@@H](O)C=C[C@H]3[C@H]1C5 [morphine]
- sustained %MPE no matter how high the dose (neuropathic mice): about 50 %MPE
- inspiratory time (Sprague–Dawley rats): significant increase in inspiratory time
- respiratory frequency (Sprague–Dawley rats): decrease in respiratory frequency
- respiratory depression (ventilation minute) (Sprague–Dawley rats; vs saline, AUC): deleterious effect
- %MPE in tail-flick test upon increased dosing (mice (C57BL6)): 100 %MPE
